We go through one compound from patent US20160287602A1, “METHODS FOR PROMOTING MOTOR NEURON SURVIVAL” (PRESIDENT AND FELLOWS OF HARVARD COLLEGE, priority 2013, published 2016).

Experiment [1] concerns Hb9::GFP MNs. Put plainly: MN survival in co-culture with primary WT or SOD1^G93A astrocytes. To be noted: Hb9::GFP MNs on WT or SOD1^G93A astrocytes. It is filed as cell-based, mouse. The protocol:
(§1) We sought to examine whether AKIs decrease the toxic effect of SOD1^G93A mutant astrocytes. We first cultured primary astrocytes from wild type (WT) and SOD1^G93A mice and plated FACS purified MNs on top. We observed significant cell death when MNs were cultured on mutated astrocytes compared to WT astrocytes. ZM447439 improved both Hb9::GFP and SOD1^G93A/Hb9::GFP MN survival.

In experiment [2] the test system is SOD1^G93A/Hb9::GFP MNs. Described as above. It is filed as cell-based, mouse. The protocol: as §1
The subject of experiment [3] is iPSC-derived MN lines. Nature of the experiment: Synapse formation of iPSC-derived MNs. To be noted: all iPSC-derived MN lines, absence of trophic factor. The experiment is classed as cell-based, human. The source says: (§2) We produced MNs from human iPSCs lines including a healthy control, two ALS patients expressing confirmed mutations in SOD1 (Boulting et al., 2011), two with mutations in TDP-43 and one in C90RF72. We treated these cultures with AraC to minimize the number of proliferating progenitors. […] We also examined the effect of SOD 1^G93A astrocytes co-culture on iPSC derived MNs. We found no toxic effect on survival in any of the patient iPSC derived MNs, but we did observe decreased MN survival in the control iPSC derived MNs. […] We also looked at the effect of AKIs on morphology and synapse formation. […] In addition, by immunoblot we observed that ZM447439 enhanced synaptic protein, synaptophysin, expression in both the presence and absence of trophic factors.

For a further experiment, the system named is synaptophysin. Nature of the experiment: Synaptophysin immunoblot, iPSC-derived MNs. The experiment is classed as cell-based, human. The conditions noted are these: both the presence and absence of trophic factors.
Description: as §2
Background: Immunoblotting shows a protein as a band on a membrane.

Experiment [4] deals with synaptophysin in Hb9::GFP MN cultures. Nature of the experiment: Synaptophysin immunoblotting. The experiment is classed as cell-based, mouse.
Experiment [5] concerns synaptophysin in SOD1^G93A/Hb9::GFP MN cultures. Nature of the experiment: Synaptophysin immunoblotting. It is filed as cell-based, mouse.
Experiment [6] has as its system Hb9::GFP and SOD1^G93A/Hb9::GFP MNs. Nature of the experiment: Microarray analysis of gene expression in MNs. The conditions noted are these: compound in the absence of TFs versus -TF. It is filed as cell-based, mouse. The source says: (§3) Next we sought to investigate the mechanism by which AKIs promote MN survival. To evaluate this comprehensively we performed microarray analysis to compare gene expression between MNs cultured with: 1) Trophic factors (+TF), 2) No trophic factors (−TF), 3) VX-680 in the absence of TFs, and 4) ZM447439 in the absence of TFs. […] Gene expression was compared between +TF and −TF, VX-680 and −TF, and ZM447439 and −TF. With a cut off of more than 3 fold difference, there were 85 genes overlapping in all three comparison in Hb9::GFP MNs and 57 in SOD1^G93A/Hb9::GFP MNs. We found 39 overlapping genes when we compared both types of MNs (FIG. 5B). […] We analyzed the shortlist of 39 genes by using DAVID functional annotation bioinformatics microarray analysis software to find the potential pathways involved in MN survival. […] PKA is known to phosphorylate BAD protein, leading to increased cell survival (Jose M. LIZCANO et al., 2000; Julian Downward et al., Nature cell biology 1999; Komaki S et al., Neurosci Lett 2012). […] We further investigated this pathway by lentivirus knockdown of Prkarlb.

The next experiment concerns FACS purified MNs. Put plainly: Area of MN cell bodies in astrocyte co-culture. The experiment is classed as cell-based, mouse. Here is the method:
as §1

Experiment [7] concerns Hb9::GFP MNs. Put plainly: MN morphology analysis of surviving MNs. It is filed as cell-based, mouse. To be noted: absence of trophic factors, extended time point. From the text:
(§4) To examine whether MNs kept alive by AKIs maintain morphological integrity we carried out a series of analyses on surviving MNs in the absence of trophic factors. […] We also used an automated imager to analyze the number of synapses per MN by counting co-localized regions positive for the presynaptic marker synapsin and the postsynaptic marker PSD-95.

Experiment [8] relates to SOD1^G93A/Hb9::GFP MNs. Put plainly: MN morphology analysis of surviving MNs. The experiment is classed as cell-based, mouse. The conditions noted are these: absence of trophic factors, extended time point.
Description: as §4

The next experiment has as its system MNs. Nature of the experiment: Lentivirus knockdown of Prkarlb, MN survival. The experiment is classed as cell-based, mouse.
Description: as §3

Experiment [9] has as its system iPSC-derived MN lines. Put plainly: Morphology of iPSC-derived MNs. The experiment is classed as cell-based, human. The conditions noted are these: all iPSC-derived MN lines, absence of trophic factor.
Description: as §2

The subject of another experiment is Prkarlb. Nature of the experiment: Prkar1b immunostaining in surviving MNs. It is filed as cell-based, mouse. The conditions noted are these: absence of TFs.
A further experiment has as its system iPSCs derived MNs. Put plainly: iPSC derived MNs co-cultured with wild type or SOD1^G93A astrocytes. The conditions noted are these: iPSCs derived MNs cultured on wild type or SOD1^G93A astrocytes. The experiment is classed as cell-based, human.
Description: as §2

Take `COc1cc2c(Nc3ccc(NC(=O)c4ccccc4)cc3)ncnc2cc1OCCCN1CCOCC1` [ZM447439, N-[4-[[6-Methoxy-7-[3-(4-morpholinyl)propoxy]-4-quinazolinyl]amino]phenyl]benzamide]: the “MN survival in astrocyte co-culture” value in the experiment with Hb9::GFP MNs [1] is listed as “improved”; with SOD1^G93A/Hb9::GFP MNs [2] (SOD1^G93A/Hb9::GFP MN co-cultured with SOD1^G93A astrocytes), “less of an increase in survival”; in the experiment with SOD1^G93A/Hb9::GFP MNs [2] (SOD1^G93A/Hb9::GFP MNs on WT or SOD1^G93A astrocytes), “improved”; in the experiment with iPSCs derived MNs, “improved survival”. The synapse formation result in the experiment with iPSC-derived MN lines [3] is given as “preserved both”. The “synaptic protein synaptophysin expression” value in the experiment on synaptophysin was “enhanced”. Besides, the “expression of synaptic protein synaptophysin” value in experiment [4] and in experiment [5] was “increased expression” throughout. The “expression of genes related to synapse formation (Syt1, Snap25 and Sv2c, Map2 and Dcx)” value in [6] is on record as “upregulated”. Further, the “area of MN cell bodies” value in the experiment on FACS purified MNs is listed as “increased”. Moreover, the “MN morphology (total neurite length, maximum neurite length, number of extremities and number of nodes per MN)” value with Hb9::GFP MNs [7] and with SOD1^G93A/Hb9::GFP MNs [8] was “preserved all of these features” in each case. Moreover, the “MN survival on knocking down Prkarlb in the presence of the compound” value in the experiment on MNs is reported as “effectively decreased MN survival”. For the same compound, the morphology result in the experiment on iPSC-derived MN lines [9] is “preserved both”. Further, the “levels of Prkarlb” value with Prkarlb is recorded as “increased levels”.
